In patent publication US11071720B2, “Cancer therapy” (UCL Business Ltd, priority 2016, dated 2021):

Experiments:
H3K4me3 = assay: Western blot analysis of H3K4me3 in MLL rearranged cell lines; assay type: cell-based, human; conditions: various MLL rearranged cell lines, 16 hrs in the presence of copper
[1] = test system: MLL-AF9 and MLL-AF4 profiles; assay: Gene Set Enrichment Analysis of treated SHI-I cells; assay type: cell-based, human; conditions: 16 hrs in the presence of copper
Description: (§1) SHI-I (MLL-AF6), THP-I (MLL-AF9) and MV4-11 (MLL-AF4) cell lines were treated with 300 nM of Disulfiram (Aldrich) or concentrations indicated and 1 μM of Copper chloride (Acros Organics) unless indicated otherwise for 16 hours.

MLL-AF9 = target: T1, MLL-AF9 (Homo sapiens, UniProt P42568+Q03164); assay: Western blot analysis of MLL-fusion protein proteolysis in MLL-AF9 cells (V6MA.3, THP-1); assay type: cell-based
T1 construct: AF9 (MLLT3, P42568) portion as fusion partner; host or cells: THP-1 (endogenous fusion); V6MA.3 (MLL-AF9 immortalised cord blood)
T1 sequence (Q03164 1147-1203 limits assumed, one chain of several): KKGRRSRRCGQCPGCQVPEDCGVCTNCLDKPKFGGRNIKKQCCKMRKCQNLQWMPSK
Description: (§2) Human leukaemic cell lines (DSMZ) were cultured in Roswell Park Memorial Institute (RPMI) medium (Invitrogen), supplemented with 10% heat-inactivated FCS, 100 U/ml Penicillin (Invitrogen), 100 μg/ml Streptomycin (Invitrogen) and 2 mM L-glutamine (Invitrogen) (complete RPMI), or in Iscove's Modified Dulbecco's Medium (IMDM) (Invitrogen) supplemented with 20% heat-inactivated FCS, 100 U/ml Penicillin (Invitrogen), 100 μg/ml Streptomycin (Invitrogen) and 2 mM L-glutamine (Invitrogen)(complete IMDM).
as §1
(§3) Cells were lysed in Sample Reducing Buffer (200 mM DTT, 2% sodium dodecyl sulphate (SDS), 10% v/v Glycerol, 0.02% v/v Bromophenol Blue, 125 mM Tris HCl pH 6.8). The lysates were incubated for 5 minutes at 100° C., vortexed for 10 seconds and centrifuged at 13,200 rpm for 10 minutes at 4° C. The total cell lysate was then collected and stored at −20° C. or loaded immediately onto a polyacrylamide gel.
The whole cell lysate was electrophoresed in 7% Bis-Tris polyacrylamide gel and transferred to a odyssey nitrocellulose membrane (LI-COR). […]

MLL rearranged cells = assay: Methylcellulose colony formation assay; assay type: cell-based, human; conditions: 300 nM disulfiram; MLL rearranged cells vs other leukemic cell lines and CD34+ cord blood
Description: FIGS. 6A and 6B show, as explained in Example 1: in FIG. 6A, relative CFU corresponding to colony formation in MLL rearranged cells, other leukemic cell lines and CD34+ cord blood, in a methylcellulose colony formation assay after treatment of the cells with 300 nM disulfiram (equal numbers of cells were plated and normalised CFU frequency is shown, with error bars representing standard deviation); and, in FIG. 6B, the corresponding treated and control plates themselves.

MLL-AF6 = target: T2, MLL-AF6 (Homo sapiens, UniProt P55196+Q03164); assay: Western blot analysis of MLL-fusion protein proteolysis in MLL-AF6 positive cell line SHI-I; assay type: cell-based; conditions: SHI-I cells
T2 construct: AF6 (AFDN, P55196) portion as fusion partner; host or cells: SHI-I (SHI-1) human leukaemic cell line
T2 sequence (Q03164 1146-1214 limits assumed, one chain of several): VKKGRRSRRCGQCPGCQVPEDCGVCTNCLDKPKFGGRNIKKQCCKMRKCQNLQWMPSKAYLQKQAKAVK
Description: as §2, §1, §3
The whole cell lysate was electrophoresed in 7% Bis-Tris polyacrylamide gel and transferred to a odyssey nitrocellulose membrane (LI-COR).
After blocked for 1 hr for non-specific binding in PBS-T with 5% of non-fat milk, blots were incubated with primary antibodies (MLL, mouse monoclonal 1:2000, Millipore; Vinculin, rabbit monoclonal 1:10000, Abcam) overnight at 4° C., followed by secondary IRDye conjugated antibodies (mouse IEDye800CW 1:10000; rabbit IRDye680RD 1:10000, LI-COR) at room temperature.
Blots were visualized using the Odyssey CLx.
SHI-I (MLL-AF6), and THP-I (MLL-AF9) cell lines were treated with 300 nM of Diethyldithiocarbamate (Aldrich) and 1 μM of Copper chloride (Acros Organics) unless indicated otherwise for 16 hours.
SHI-I (MLL-AF6) cell line was treated with 100 nM or 75 nm of Disulfiram (Aldrich) and 100 nM of Auranofin or 10 μM of Curcumin supplemented with 1 μM of Copper chloride (Acros Organics) for 16 hours.

MLL fusion proteins = assay: Western blot, proteolysis of MLL fusion proteins (effect of copper; primary patient sample); assay type: cell-based, human
HOXA9/HOXA10 and MEIS1 = assay: RT-qPCR analysis of MLL target gene expression in SHI-I cells; assay type: cell-based, human; conditions: 16 hrs of treatment
Description: as §1

[2] = 16 hrs treatment in the presence of copper

SMILES	H3K4me3 level (Western blot) (H3K4me3)	Gene Set Enrichment Analysis versus published MLL-AF9 and MLL-AF4 profiles [1]	proteolysis of the MLL-fusion protein (Western blot) (MLL-AF9; MLL-AF9 immortalised cord blood V6MA.3, 16 hrs treatment in the presence of copper)	relative CFU corresponding to colony formation (MLL rearranged cells)	proteolysis of the MLL-fusion protein (Western blot) (MLL-AF6; [2])	proteolysis of the MLL-fusion protein (Western blot) (MLL-AF6; 16 hrs, in the presence of copper, with or without thioredoxin reductase inhibitors Auranofin and Curcumin)	proteolysis of the MLL-fusion protein (Western blot) (MLL fusion proteins)	MLL target gene expression level of HOXA9/HOXA10 and MEIS1, normalised to 18S (RT-qPCR) (HOXA9/HOXA10 and MEIS1)	proteolysis of the MLL-fusion protein (Western blot) (MLL-AF9; MLL-AF9 positive cell line THP-1, 16 hrs treatment in the presence of copper)
CCN(CC)C(=S)SSC(=S)N(CC)CC [disulfiram]	showing a decrease in H3K4me3	negative enrichment to both published MLL-AF9 and MLL-AF4 profiles	showing proteolysis of the MLL-fusion protein	substantially higher effect than in other (non-MLL) leukemic cell lines and CD34+ cord blood	showing proteolysis of the MLL-fusion protein	showing proteolysis of the MLL-fusion protein	showing proteolysis of the MLL-fusion protein in a primary patient sample	efficient down-regulation of the target genes	
CCN(CC)C(=S)S [diethyldithiocarbamate, Diethyldithiocarbamic acid]					showing proteolysis of the MLL-fusion protein				showing proteolysis of the MLL-fusion protein
